Reference: ChEMBL document CHEMBL6153028, “Understanding the synergistic sensitization of natural products and antibiotics: An effective strategy to combat MRSA” (2025)

Tests used:
Assay type in all cases: functional
Staphylococcus aureus [1] = assay: Synergistic antibacterial activity against methicillin resistant Staphylococcus aureus clinical isolate 003 assessed as fractional inhibitory concentration in presence of norfloxacin
Staphylococcus aureus [2] = assay: Synergistic antibacterial activity against methicillin resistant Staphylococcus aureus assessed as fractional inhibitory concentration index in presence of erythromycin incubated for 24 hrs by checkerboard assay
Staphylococcus aureus [3] = assay: Synergistic antibacterial activity against methicillin resistant Staphylococcus aureus assessed as fractional inhibitory concentration index in presence of ampicillin
Staphylococcus aureus [4] = assay: Synergistic antibacterial activity against methicillin resistant Staphylococcus aureus assessed as fractional inhibitory concentration index in presence of norfloxacin; conditions: time 24 hrs
Staphylococcus aureus [5] = assay: Synergistic antibacterial activity against methicillin resistant Staphylococcus aureus assessed as fractional inhibitory concentration index in presence of tetracycline
Staphylococcus aureus [6] = assay: Synergistic antimicrobial activity against methicillin-resistant Staphylococcus aureus CCARM 3089 assessed as fractional inhibitory concentration index in presence of pencillin incubated for 24 hrs by checkerboard assay
Staphylococcus aureus [7] = assay: Antibacterial activity against methicillin-resistant Staphylococcus aureus assessed as reduction in microbial growth by CLSI based broth microdilution method
Staphylococcus aureus [8] = assay: Synergistic antimicrobial activity against methicillin resistant Staphylococcus aureus assessed as fractional inhibitory concentration index incubated for 24 hrs in presence of rifampicin by checkerboard assay
Staphylococcus aureus [9] = assay: Synergistic antimicrobial activity against methicillin resistant Staphylococcus aureus assessed as fractional inhibitory concentration index incubated for 24 hrs in presence of Norfloxacin by checkerboard assay
Staphylococcus aureus [10] = assay: Synergistic antimicrobial activity against methicillin-resistant Staphylococcus aureus assessed as fractional inhibitory concentration index incubated for 24 hrs in presence of ampicillin by checkerboard assay
Staphylococcus aureus [11] = assay: Synergistic antimicrobial activity against methicillin resistant Staphylococcus aureus assessed as fractional inhibitory concentration index incubated for 24 hrs in presence of oxytetracycline by checkerboard assay
Staphylococcus aureus [12] = assay: Synergistic antimicrobial activity against methicillin resistant Staphylococcus aureus assessed as fractional inhibitory concentration index incubated for 24 hrs in presence of Oxacillin by checkerboard assay
Staphylococcus aureus [13] = assay: Synergistic antimicrobial activity against methicillin resistant Staphylococcus aureus assessed as fractional inhibitory concentration index incubated for 24 hrs in presence of linezolid by checkerboard assay
Staphylococcus aureus [14] = assay: Synergistic antimicrobial activity against methicillin resistant Staphylococcus aureus assessed as fractional inhibitory concentration index incubated for 24 hrs in presence of daptomycin by checkerboard assay
Staphylococcus aureus [15] = assay: Synergistic antimicrobial activity against methicillin resistant Staphylococcus aureus assessed as fractional inhibitory concentration index incubated for 24 hrs in presence of ciprofloxacin by checkerboard assay
Staphylococcus aureus [16] = assay: Synergistic antibacterial activity against methicillin resistant Staphylococcus aureus assessed as fractional inhibitory concentration index in presence of ampicillin by checkerboard assay
Staphylococcus aureus [17] = assay: Synergistic antibacterial activity against methicillin resistant Staphylococcus aureus assessed as fractional inhibitory concentration index in presence of cephradine by checkerboard assay
Staphylococcus aureus [18] = assay: Synergistic antimicrobial activity against methicillin-resistant Staphylococcus aureus assessed as fractional inhibitory concentration index in presence of ciprofloxacin incubated for 24 hrs by checkerboard assay
Staphylococcus aureus [19] = assay: Synergistic antimicrobial activity against Staphylococcus aureus DSM 1104 planktonic cells assessed as fractional inhibitory concentration index in presence of gentamicin by checkerboard assay
Staphylococcus aureus [20] = assay: Synergistic antimicrobial activity against Staphylococcus aureus DSM 1104 planktonic cells assessed as fractional inhibitory concentration index in presence of oxacillin by checkerboard assay
Staphylococcus aureus [21] = assay: Synergistic antimicrobial activity against methicillin-resistant Staphylococcus aureus CCARM 3089 assessed as fractional inhibitory concentration index in presence of Ceftiofur incubated for 24 hrs by checkerboard assay
Staphylococcus aureus [22] = assay: Synergistic antimicrobial activity against methicillin-resistant Staphylococcus aureus assessed as fractional inhibitory concentration index in presence of penicillin G incubated for 24 hrs by checkerboard assay
Staphylococcus aureus [23] = assay: Synergistic antimicrobial activity against methicillin-resistant Staphylococcus aureus assessed as fractional inhibitory concentration index in presence of ampicillin incubated for 24 hrs by checkerboard assay
Staphylococcus aureus [24] = assay: Synergistic antimicrobial activity against methicillin-resistant Staphylococcus aureus assessed as fractional inhibitory concentration index in presence of amoxicillin incubated for 24 hrs by checkerboard assay
Staphylococcus aureus [25] = assay: Synergistic antimicrobial activity against methicillin-resistant Staphylococcus aureus assessed as fractional inhibitory concentration index in presence of cefixime incubated for 24 hrs by checkerboard assay
Staphylococcus aureus [26] = assay: Synergistic antimicrobial activity against methicillin-resistant Staphylococcus aureus assessed as fractional inhibitory concentration index in presence of Ceftriaxone incubated for 24 hrs by checkerboard assay
Staphylococcus aureus [27] = assay: Synergistic antimicrobial activity against methicillin-resistant Staphylococcus aureus assessed as fractional inhibitory concentration index in presence of chloramphenicol by checkerboard assay
Staphylococcus aureus [28] = assay: Synergistic antimicrobial activity against methicillin-resistant Staphylococcus aureus assessed as fractional inhibitory concentration index in presence of fosfomycin by checkerboard assay
Staphylococcus aureus [29] = assay: Synergistic antimicrobial activity against methicillin-resistant Staphylococcus aureus assessed as fractional inhibitory concentration index in presence of minocycline by checkerboard assay
Staphylococcus aureus [30] = assay: Synergistic antimicrobial activity against methicillin-resistant Staphylococcus aureus assessed as fractional inhibitory concentration index in presence of gentamicin by checkerboard assay

For `CC(C)=CCC/C(C)=C\C=O`, which “fractional inhibitory concentration index (FICI)” value (Staphylococcus aureus [1]) is on record?
The value was <0.5.

What about the “fractional inhibitory concentration index (FICI)” value (Staphylococcus aureus [2]) of the same compound?
Its value is <0.5.

What does the source list for `COc1cc2oc(-c3ccc(O)cc3O)c(CC=C(C)C)c(=O)c2c(O)c1/C=C/C(C)C` [ARTOCARPIN]?
fractional inhibitory concentration index (FICI) (Staphylococcus aureus [3]): 0.37; fractional inhibitory concentration index (FICI) (Staphylococcus aureus [4]): 0.15; fractional inhibitory concentration index (FICI) (Staphylococcus aureus [5]): 0.24

Which “fractional inhibitory concentration index (FICI)” value (Staphylococcus aureus [6]) does the source give for `Oc1cc(O)cc(Oc2c(O)cc(O)c3c2Oc2c(O)cc4oc5c(Oc6cc(O)cc(O)c6)c(O)cc(O)c5c4c2O3)c1` [PHLOROFUCOFUROECKOL A] here?
Its value is 0.393.

With `C=CC(C)(C)c1cc(-c2coc3cc(O)cc(O)c3c2=O)c(CC=C(C)C)c(O)c1O` as the compound, how does the MIC (Staphylococcus aureus [7]) read?
Its MIC is 12.5 µg/mL.

How did the “fractional inhibitory concentration index (FICI)” value (Staphylococcus aureus [8]) turn out when `Oc1ccc([C@H]2Oc3cc(O)cc4c3[C@@H]2c2cc(O)cc3c2[C@H](c2cc(O)cc5c2[C@H]4[C@@H](c2ccc(O)cc2)O5)[C@@H](c2ccc(O)cc2)O3)cc1` was run?
The value was <0.5.

What about the “fractional inhibitory concentration index (FICI)” value (Staphylococcus aureus [9]) of the same compound?
The value was <0.5.

What about the “fractional inhibitory concentration index (FICI)” value (Staphylococcus aureus [10]) of the same compound?
The value was <0.5.

For `CC[C@@H]1CC[C@@]2(C)C(C)=CCC[C@@H]2[C@@]1(C)CCC1=CC(=O)O[C@@H]1O`, which “fractional inhibitory concentration index (FICI)” value (Staphylococcus aureus [11]) is on record?
The value was 0.321.

What about the “fractional inhibitory concentration index (FICI)” value (Staphylococcus aureus [12]) of the same compound?
The value was 0.223.

What about the “fractional inhibitory concentration index (FICI)” value (Staphylococcus aureus [13]) of the same compound?
Its value is 0.34.

What about the “fractional inhibitory concentration index (FICI)” value (Staphylococcus aureus [14]) of the same compound?
The value was 0.32.

How did the “fractional inhibitory concentration index (FICI)” value (Staphylococcus aureus [15]) turn out when `COc1cc(/C=C/C(=O)CC(=O)/C=C/c2ccc(O)c(OC)c2)ccc1O` [CURCUMIN] was run?
Its value is 0.25.

With `O=c1cc(-c2ccc(O)c(O)c2)oc2cc(O)cc(O)c12` [LUTEOLIN] as the compound, how does the “fractional inhibitory concentration index (FICI)” value (Staphylococcus aureus [16]) read?
The value was 0.125.

What about the “fractional inhibitory concentration index (FICI)” value (Staphylococcus aureus [17]) of the same compound?
The value was 0.44.

How did the “fractional inhibitory concentration index (FICI)” value (Staphylococcus aureus [18]) turn out when `Oc1cc(O)cc(/C=C/c2ccc(O)c(O)c2)c1` [PICEATANNOL] was run?
Its value is 0.375.

Which “fractional inhibitory concentration index (FICI)” value (Staphylococcus aureus [19]) does the source give for `O=C(/C=C/c1ccc(O)cc1)CC(=O)/C=C/c1ccc(O)cc1` [BISDEMETHOXYCURCUMIN] here?
The value was 0.1.

And the “fractional inhibitory concentration index (FICI)” value (Staphylococcus aureus [20])?
The value was 0.51.

Which “fractional inhibitory concentration index (FICI)” value (Staphylococcus aureus [21]) does the source give for `O=c1c(O)cc([C@H]2Oc3cc(O)cc(O)c3C[C@H]2O)cc2c([C@H]3Oc4cc(O)cc(O)c4C[C@H]3O)cc(O)c(O)c12` [THEAFLAVIN] here?
The value was 0.187.

Which results are given for `O=c1cc(-c2ccccc2)c2cc(O)c(O)cc2o1`?
fractional inhibitory concentration index (FICI) (Staphylococcus aureus [22]): <0.5; fractional inhibitory concentration index (FICI) (Staphylococcus aureus [23]): <0.5; fractional inhibitory concentration index (FICI) (Staphylococcus aureus [24]): <0.5; fractional inhibitory concentration index (FICI) (Staphylococcus aureus [25]): <0.5; fractional inhibitory concentration index (FICI) (Staphylococcus aureus [26]): <0.5

What does the source list for `COc1cc(OC/C=C(\C)CCC=C(C)C)c2ccc(=O)oc2c1`?
fractional inhibitory concentration index (FICI) (Staphylococcus aureus [27]): <0.5; fractional inhibitory concentration index (FICI) (Staphylococcus aureus [28]): <0.5; fractional inhibitory concentration index (FICI) (Staphylococcus aureus [29]): <0.5; fractional inhibitory concentration index (FICI) (Staphylococcus aureus [30]): <0.5
